Measured values: US20200345733A1, “Microbicidal Pyrimidine or Triazine Containing Compounds” (Janssen Sciences Ireland UC, priority 2002, published 2020)
Read-outs that look alike come from different tables or passages of the source.

Legend:
Assay type in all cases: cell-based
[1] = test system: cervical epithelial cells (MEI180); experiment: MTT viability of cervical epithelial cells; settings: exposure 1 hr, 24 hrs or 5 days
[2] = Cytotoxicity in CEM T cells; settings: human; viability of CEM T cells decreased by 50%
Protocol: As a reference system, CEM T cells (obtained from the American Type culture Collection in Rockville, Md.) were used under previously standardized conditions (Balzarini J, et al. AIDS Res Hum Retroviruses 10 Apr. 2000, 16: 517-528). Briefly, cells were suspended at 250,000 cells/ml in RPMI-1640, supplemented with 10% fetal calf serum, 2 mM L-glutamine and 0.075% NaHCO3 and infected with HTLV-IIIB at ˜20 TCID50. 100 μl of a 5-fold dilution series of the drugs were immediately added to 100 μl of the infected cells in 200-μl well plates. After 4 to 5 days of incubation at 37° C., the cultures were examined for syncytium formation. The EC50 is the concentration required to inhibit syncytium formation by 50%. Cytotoxicity was evaluated and given as CC50 values, which is the concentration at which the viability of the CEM cells is decreased by 50%.

T cells = settings: human, 5 days
Protocol: Immune Suppressive Concentration (ISC50) is defined as the drug concentration inhibiting 50% of the lymphocyte proliferation. Cellular toxicity was evaluated microscopically by […] staining of co-cultures of MO-DC and allogeneic CD4(+) T cells , cultured for 5 days in the presence of a dilution series of drug. Part of the harvested cells was also used for flowcytometric analysis of lymphocyte blast formation and apopoptosis, based on forward and side scatter.
Additional experiments were done to evaluate if inhibition of DNA synthesis corresponded to increased mortality of T cells or only to decreased blast formation.

HIV Ba-L = experiment: Prevention of HIV Ba-L infection in MO-DC/CD4(+) T cell co-cultures (ELISA, secondary culture, PCR); settings: for HIV Antigen (number of positive wells) 2° Cult. / HIV proviral DNA (2° Cult.) / HIV Antigen (number of positive wells) 1° Cult.: cell-associated HIV Ba-L; for HIV Antigen (number of positive wells) 2° Cult.: 2° culture without drug, out of 6; for HIV proviral DNA (2° Cult.): PCR after secondary culture; for HIV Antigen (number of positive wells) 1° Cult.: continuous drug, out of 6 microcultures; for EC50: Human immunodeficiency virus 1, BAL, T-cell, MO-DC/CD4(+) T cells, read-out: EC50 (inhibiting 50% of HIV Ba-L replication)
Protocol: For experiments with CEM T cells, we used the lymphotropic SI/X4 HIV strain HTLV-IIIB, originally obtained from R. C. Gallo and M. Popovic (NIH, Bethesda, Md.). For experiments with monocyte-derived dendritic cells (MO-DC), the monotropic NSI/R5 HIV strain Ba-L, kindly provided by the NIH AIDS Research and Reference Reagent Program (Rockville, Md) was used. Ba-L stocks were grown and tittered on PHA/IL-2-stimulated peripheral blood mononuclear cells (PBMC) in complete medium, containing RPMI-1640 (Bio-Whittaker, Verviers, Belgium) and 10% bovine calf serum (Hyclone, Utah, US) (Peden K. Virological and Molecular Genetic Techniques for Studies of Established HIV Isolates. 1995, 21-45). The supernatant of these cultures were directly used as cell-free virus to infect MO-DC. To prepare cell-associated HIV Ba-L, non-stimulated PBMC (2×10^6 cells/ml) were incubated overnight with 10^−2 MOI (=multiplicity of infection) of HIV Ba-L in complete medium. Afterwards, cells were extensively washed, frozen in liquid nitrogen and thawed on the day of infection.
HIV antigen was detected using an in-house developed ELISA assay, of which the characteristics have been described (Beirnaert E, Willems B, Peeters M, Bouckaert A, Heyndrickx L, Zhong P et al. Design and Evaluation of an in-House HIV-1 (Group M and O), SIVmnd and SIVcpz Antigen Capture Assay. J Virol Methods 1998, 73: 65-70). The lower detection limit is about 200 pg/ml and the upper limit is about 25,000 pg/ml, as determined using a standard curve of Ba-L stock dilutions with known p24 content. The 50% Effective Concentration (EC50) was calculated by plotting HIV Ag concentration against drug concentration, followed by regression analysis on the linear part of the curve,
Cell-free HIV Ba-L was pre-incubated with a serial dilution of drug, ranging from 10,000 to 0.1 nM (final concentration), for 1 hour at 37° C. MO-DC were infected with drug-treated HIV at a multiplicity of infection (MOI) of 10^−3. After 2 hours (at 37° C.), MO-DC were washed (6×) and suspended at 4×10^5 cells/ml. 50 μl of MO-DC were dispensed in a 96-well cup, together with 50 μl of autologous CD4(+) T cells (2×10^6 cells/ml) and 100 μl of complete medium or 100 μl of drug (at the same concentration as for the pre-incubation). Half of the culture medium was refreshed twice weekly with complete medium, with or without drug. After 2 weeks of primary culture, supernatants were analysed by ELISA and cells were used for secondary cultures to check viral rescue. For experiments with cell-associated HIV, a similar set-up was used except that pre-incubated, cell-associated virus was washed before addition of MO-DC/CD4(+) T cells and remained present during the MO-DC/CD4(+) T cell co-culture.
To evaluate the effect of a 24-hours treatment, MO-DC and autologous CD4(+) T cells were suspended in complete medium at 4×10^4, resp. 2×10^5 cells/ml. Fifty μl of MO-DC and 50 μl of CD4(±) T cells were dispensed in a 96-well cup, together with 50 μl of cell-associated or cell-free virus (10^−3 MOI) and 50 μl of complete medium or 50 μl of a serial dilution of drug. After 24-hours (37° C., 5% CO2), cells were washed (3×) and incubated for 2 weeks. Half of the culture medium was refreshed twice weekly with complete medium (without drug). After 2 weeks of primary culture, supernatants were analysed by ELISA and cells were used for secondary cultures to check viral rescue.
PBMC were isolated from donor buffy coats and cultured for 2 days in complete medium supplemented with 5 ng/ml IL-2 (Immunosource, Zoersel, Belgium) and 0.5 μg/ml PHA (Murex, Dartford, England). After 2 weeks of primary culture, MO-DC/CD4(+) T cell co-cultures were washed (3×) and secondary cultures were set-up by adding 1×10^5 PHA/IL-2 activated PBMC per cup. Half of the culture medium was replaced every 3-4 days with IL-2 containing medium (without drug) and supernatants as well as cells were harvested after 2 additional weeks. Supernatants were tested for HIV-Ag in ELISA. […]

[3] = Continuous treatment, Cell-associated HIV
[4] = Continuous treatment, Cell-free HIV

## Cc1cc(C)c(Nc2ccnc(Nc3ccc(C#N)cc3)n2)c(C)c1 [compound B, 4-[[4-[(2,4,6-trimethylphenyl)amino]-2-pyrimidinyl]amino]benzonitrile]
[1]; 100 nM
  Toxicity (viability, MTT assay): some reduction of viability
[1]; 50 μM
  Toxicity (viability, MTT assay): no toxicity
[2]
  CC50: 1370 nM
T cells
  50% death rate of T cells: 54,222 nM
  Fifty percent inhibition of blast formation: 3,916 nM
HIV Ba-L; 10 nM in 1° culture
  HIV Antigen (number of positive wells) 2° Cult.: 3
HIV Ba-L; 10 nM
  HIV proviral DNA (2° Cult.): 4.74 Log(number of DNA copies/10^6 cells)
  HIV Antigen (number of positive wells) 1° Cult.: 0
HIV Ba-L; 100 nM in 1° culture
  HIV Antigen (number of positive wells) 2° Cult.: 0
HIV Ba-L; 100 nM
  HIV proviral DNA (2° Cult.): Neg
  HIV Antigen (number of positive wells) 1° Cult.: 0
HIV Ba-L; 1,000 nM in 1° culture
  HIV Antigen (number of positive wells) 2° Cult.: 0
HIV Ba-L; 1,000 nM
  HIV proviral DNA (2° Cult.): Neg
  HIV Antigen (number of positive wells) 1° Cult.: 0
HIV Ba-L; 10,000 nM in 1° culture
  HIV Antigen (number of positive wells) 2° Cult.: 0
HIV Ba-L; 10,000 nM
  HIV proviral DNA (2° Cult.): Neg
  HIV Antigen (number of positive wells) 1° Cult.: 0
HIV Ba-L; 24 Hours treatment, Cell-associated HIV
  Conc. that prevents replicative HIV infection (ELISA and PCR after 2° culture): 1,000 nM
HIV Ba-L; 24 Hours treatment, Cell-free HIV
  Conc. that prevents replicative HIV infection (ELISA and PCR after 2° culture): 100 nM
HIV Ba-L; [3]
  Conc. that prevents replicative HIV infection (ELISA and PCR after 2° culture): 100 nM
  EC50: < 1 nM
HIV Ba-L; [4]
  Conc. that prevents replicative HIV infection (ELISA and PCR after 2° culture): 10 nM
  EC50: < 0.1 nM
HIV Ba-L; 24 h, 24 hours treatment, Cell-associated HIV
  EC50: 63 nM
HIV Ba-L; 24 h, 24 hours treatment, Cell-free HIV
  EC50: 42 nM
HIV Ba-L; cell-associated virus, continuous treatment, primary culture only
  Concentration that blocked infection in the primary cultures: 10 nM
